# Reference: US10940188B2, “Compounds and methods for treatment and prevention of Flavivirus infection” (priority 2016, dated 2021)
# System: ZIKV in human astrocytes
# Assay: ZIKV infection of human astrocytes (ZIKVE immunostaining, NS1 Western blot/ELISA)
# Type: cell-based, Zika virus
# Conditions: PRVABC59
# Method: FIGS. 4A-1, 4A-2, 4B-1, 4B-2, 4B-3, 4C-1, 4C-2, 4D-1, and 4D-2. […] Cells were fixed 24 hours post infection and stained for ZIKVE (green) and DAPI (blue). Scale bar: 50 μm. Also shown is the quantification of ZIKV-infected astrocytes with multiple compound concentrations (FIG. 4A-2). Values represent mean±s.d. (n=6; ***P<0.001; One-way ANOVA). Shown in FIG. 4B-3 is virus production from compound-treated iPSC-derived human astrocytes (as in FIG. 2F) (n=3 cultures). Data represent mean±s.d. […] Shown are sample images and quantification (FIGS. 4B-1 and 4B-2). Values represent mean±s.d. (n=2; ***P<0.01; One-way ANOVA). Synergistic effect of Emricasan/PHA-690509 combination on improving cell viability in ZIKV infected astrocytes. Note that Emricasan and PHA-690509 inhibit the increased caspase-3 activity in a concentration-dependent manner in human astrocytes infected with FSS13025-ZIKV or MR766 ZIKV, and improve cell viability as measured by ATP production (FIGS. 4C-1, 4C-2, 4D-1, and 4D-2). Values represent mean±s.d. […]
# FIGS. 8A-8E. […] Cell lysates were harvested 24 hours post infection and analyzed for ZIKV-NS1 and GAPDH protein levels by western blot. Shown are representative Western blot images (FIG. 8A) and quantification (FIG. 8B). […] Shown in FIG. 8D are representative images of immunostaining for ZIKVE (green) and DAPI (gray, left; Scale bar: 20 μm) and quantification (FIG. 8E). […]
row,SMILES,inhibition of ZIKV infection in astrocytes
1,O=C(Nc1ccc([N+](=O)[O-])cc1Cl)c1cc(Cl)ccc1O [Niclosamide],inhibited ZIKV^PR infection
2,CC(=O)Nc1ccc([C@H](C)C(=O)Nc2ncc(C(C)C)s2)cc1 [PHA-690509],inhibited ZIKV^PR infection
